Data set [1] in a line: SRB cytotoxicity / cell survival under nitrite assay conditions. It counts as cell-based, murine. The settings on record: mouse, RAW 264.7 cells.
In data set [2] the test system is NO production (iNOS) in LPS-stimulated RAW 264.7 cells. The data set is classed as cell-based, murine. The conditions noted are these: for Nitrite assay % inhibition: screening concentration 50 μM, LPS 1 μg/mL, 20 h; for nitrite inhibitory activity (in words): tested up to 50 μM.
For the next data set, the system named is RAW 264.7 cells. The data set is described as follows: SRB cytotoxicity / cell survival under nitrite assay conditions. It counts as cell-based, murine. The settings on record: for Nitrite assay % survival: 50 μM, cell survival in comparison with vehicle-treated controls, SRB.
Data set [3] concerns NFκB (luciferase reporter in human embryonic kidney cells 293). The data set is described as follows: NFκB luciferase assay. The data set is classed as cell-based. The settings on record: for NFκB assay % inhibition: screening concentration 50 μM, TNFα; for NFκB inhibitory activity (in words): at 50 μM.
The test system of the next data set is HEK293. As to the kind of experiment: Cell survival in the NFκB assay. It counts as cell-based, Human. The conditions noted are these: for NFκB assay % survival: 50 μM, cell survival in comparison with vehicle-treated controls.

Where two headings read alike, the source gives them in different places.

Regarding `Nc1ccccc1C#Cc1cc(F)cc(F)c1` [10ae′, 2-((3,5-Difluorophenyl)ethynyl)aniline], the IC50 at 20 h in data set [1] amounted to 42.9 ± 5.1 µM.

For `c1ccc(-c2cc3ccccc3[nH]2)cc1` [Compound 1, 2-phenylindole], the “Nitrite assay % inhibition” value in data set [2] (50 µM) is recorded as 60.4±2.2%. Also, the “Nitrite assay % survival” value in the data set on RAW 264.7 cells amounted to 87.3±3.9%. Moreover, the “NFκB assay % inhibition” value in data set [3] (6 h, 50 µM) is recorded as 72.3±5%. Further, in the data set on HEK293, the “NFκB assay % survival” value amounted to 113.1±2.8%.

In data set [1], `C#CCn1c(-c2ccccc2)cc2ccccc21` [Compound 2d, 2-Phenyl-N-propargylindole] gave an IC50 at 20 h of 46.8 ± 1.9 µM.

With `CC(C)(C)OC(=O)n1c(-c2ccccc2)cc2ccccc21` [Compound 2f, N-Boc-2-phenylindole], it took 38.2 ± 5 µM to reach half-maximal inhibition in data set [1] (IC50 at 20 h).

On to `c1ccc(C2Cc3ccccc3N2)cc1` (stereo not drawn) [Compound 3, 2-phenylindoline], for which the “nitrite inhibitory activity (in words)” value in data set [2] is “essentially inactive”.

In data set [1], `CON=Cc1c(-c2ccccc2)[nH]c2ccccc12` [Compound 6a, 2-Phenyl-1H-indole-3-carboxaldehyde O-methyl oxime] had an IC50 at 20 h of 48 ± 5.1 µM.

Consider `c1ccc(-c2cc3ccccc3[nH]2)cc1` [Compound 10aa, 2-phenyl-1H-indole], for which the “Nitrite assay % survival” value in the data set on RAW 264.7 cells was found to be 66.7±4.0%. For the same molecule, the “NFκB assay % survival” value in the data set on HEK293 worked out at 79.8±5.9%.

On to `Cc1ccccc1-c1cc2ccccc2[nH]1` [Compound 10ab, 2-o-Tolyl-1H-indole], for which the IC80 in data set [2] (Mus musculus, RAW264.7, read-out: IC80 concentration (nitrite inhibition)) amounted to 9.3 µM. The IC50 at 20 h in data set [1] is 32.9 ± 2.5 µM. Besides, the “cell survival at the IC80 concentration” value in the data set with RAW 264.7 cells (at 9.3 μM (IC80 of nitrite inhibition)) is recorded as 94.5%. The “NFκB inhibitory activity (in words)” value in data set [3] is “inactive”.

Turning to `Cc1ccc(-c2cc3ccccc3[nH]2)cc1` [Compound 10ac, 2-p-Tolyl-1H-indole], in data set [2], the “nitrite inhibitory activity (in words)” value is “essentially inactive”.

Turning to `COc1cc(OC)cc(-c2cc3ccccc3[nH]2)c1` [Compound 10ag, 2-(3,5-Dimethoxyphenyl)-1H-indole], the “NFκB inhibitory activity (in words)” value in data set [3] was “inactive”.

On to `Cc1ccccc1-c1cc2cc([N+](=O)[O-])ccc2[nH]1` [Compound 10bb, 5-Nitro-2-o-toyl-1H-indole], for which, in data set [2], the “Nitrite assay % inhibition” value is listed as 45.9±3.0%. Moreover, the “Nitrite assay % survival” value in the data set with RAW 264.7 cells was 89.2±9.5%. Besides, in data set [3] (6 h), the “NFκB assay % inhibition” value was determined as 60.6±3.2%. The “NFκB assay % survival” value in the data set with HEK293 is reported as 119.2±8.6%.

Regarding `N#Cc1ccc2cc(-c3ccccc3)[nH]c2c1` [Compound 10ea, 6-Carbonitrile-2-phenyl-1H-indole], the “Nitrite assay % inhibition” value in data set [2] amounted to 45.6±2.5%. Moreover, the “Nitrite assay % survival” value with RAW 264.7 cells was found to be 78.1±3.8%. In addition, in data set [3] (6 h), the “NFκB assay % inhibition” value was found to be 50.6±3.8%. In addition, the “NFκB assay % survival” value in the data set with HEK293 is listed as 72.4±6.2%.

Consider `c1ccc(-c2nc3ccccc3[nH]2)cc1` [Compound 11, 2-phenylbenzimidazole, reference compound], for which the inhibition at 50 µM in data set [2] (Mus musculus, RAW264.7, 20 h, read-out: Nitrite assay % inhibition) stood at 13.8 ± 6.4%; in data set [3] (Homo sapiens, 6 h, read-out: NFκB assay % inhibition), 73.6 ± 3.1%. For the same molecule, the viability at 50 µM with RAW 264.7 cells (Mus musculus, RAW264.7, 20 h, read-out: Nitrite assay % survival) turned out to be 97.7 ± 5.6%; with HEK293 (Homo sapiens, HEK293, read-out: NFκB assay % survival), 86.2 ± 18%. The IC50 in data set [3] (Homo sapiens, 6 h, read-out: NFκB assay IC50) was 11.2 ± 0.3 µM.

The record behind these values is article PMC3493622 (Organic & biomolecular chemistry, 2012).
